{"source": "PubChem BioAssay AID504322", "about": "(Emory University Molecular Libraries Screening Center, 2011)", "system": "CHOP reporter cell assay, percent of control", "test": "CHOP reporter inhibitor potency, dose response, cell-based (AID 504322);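 also: CHO cells carrying a CHOP reporter stimulated with tunicamycin to induce ER stress; potency is for inhibition of the stress-induced reporter signal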", "note": "Activity calls are given as the source filed them. No rule for the calls is given here.", "data": [{"compound": "CC(C)=C1C2CCC1C(C(=O)Nc1sc(C)c(-c3ccc(C(C)C)cc3)c1C(N)=O)C2C(=O)O", "note": "(stereo not drawn)", "values": [{"measurement": "IC50", "result": 4.8, "unit": "µM"}]}, {"compound": "CN(C)c1ccc(/C=C/c2ccc3c4ccccc4ccc3[n+]2-c2ccccc2)cc1", "values": [{"measurement": "IC50", "result": "1.14 µM (inactive)"}]}, {"compound": "O=c1c(Cl)nc2cc(Cl)ccc2n1CCNc1ncc(C(F)(F)F)cc1Cl", "values": [{"measurement": "IC50", "result": 2.49, "unit": "µM"}]}, {"compound": "CCc1ccc2[nH]c(=O)c(C(c3nnnn3Cc3ccco3)N3CCC(C)CC3)cc2c1", "note": "(stereo not drawn)", "values": [{"measurement": "IC50", "result": 4.96, "unit": "µM"}]}, {"compound": "Cc1nn(-c2ccccc2Cl)c(Cl)c1/C=N/Nc1nc2ccccc2s1", "values": [{"measurement": "IC50", "result": "< 0.16", "unit": "µM"}]}, {"compound": "O=[N+]([O-])c1c(NCCCO)cc(Sc2ccc(Cl)cc2)c2nonc12", "values": [{"measurement": "IC50", "result": 4.7, "unit": "µM"}]}, {"compound": "CC1=CCC[C@@H]2[C@@](C)(CC/C(C)=C/C(=O)O)[C@H](C)CC[C@@]12C", "values": [{"measurement": "IC50", "result": "9.68 µM (inactive)"}]}, {"compound": "CC(C)=CCc1c(O)c(CC=C(C)C)c2c(c1O)C(=O)CC(c1ccc(O)cc1)O2", "note": "(stereo not drawn)", "values": [{"measurement": "IC50", "result": "9.61 µM (inactive)"}]}, {"compound": "Cc1ccc(N(c2ncnc(N)c2[N+](=O)[O-])C2CCCCC2)cc1", "values": [{"measurement": "IC50", "result": "> 10 µM (inactive)"}]}, {"compound": "C=C(C)Cn1c(N2CCC(Cc3ccccc3)CC2)nc2c1c(=O)[nH]c(=O)n2C", "values": [{"measurement": "IC50", "result": "8 µM (inactive)"}]}, {"compound": "CC(C)(C)OC(=O)N[C@@H](Cc1ccccc1)c1nnc(S(=O)(=O)Cc2ccccc2)o1", "values": [{"measurement": "IC50", "result": "5.59 µM (inactive)"}]}, {"compound": "CC1CCN(C(=O)/C(=C/c2ccccc2Cl)c2ccccc2)CC1", "values": [{"measurement": "IC50", "result": "3.83 µM (inactive)"}]}, {"compound": "CC1CCCC(NC(=O)COC(=O)/C=C/c2ccc3c(c2)OCO3)C1C", "note": "(stereo not drawn)", "values": [{"measurement": "IC50", "result": "> 10 µM (inactive)"}]}, {"compound": "O=[N+]([O-])c1ccc(NC(=S)NCCc2ccc(Cl)cc2)cc1", "values": [{"measurement": "IC50", "result": "> 10 µM (inactive)"}]}, {"compound": "O=C(N/N=C/c1ccc(F)cc1)c1c(O)c2ccccc2[nH]c1=O", "values": [{"measurement": "IC50", "result": "> 10 µM (inactive)"}]}, {"compound": "Cc1ccc(NP(=O)(Oc2ccccc2F)Oc2ccccc2F)cc1", "values": [{"measurement": "IC50", "result": "5.26 µM (inactive)"}]}, {"compound": "CCCCC(CC)Cn1c(N)c(C#N)c2nc3ccccc3nc21", "note": "(stereo not drawn)", "values": [{"measurement": "IC50", "result": 3.98, "unit": "µM"}]}, {"compound": "O=C(CN1CCN(c2ncc(C(F)(F)F)cc2Cl)CC1)NCCNc1ncc(C(F)(F)F)cc1Cl", "values": [{"measurement": "IC50", "result": 3.88, "unit": "µM"}]}, {"compound": "O=C1NC[C@@H](Cc2cccc3ccccc23)N(CCc2cc(C(F)(F)F)cc(C(F)(F)F)c2)C1=O", "values": [{"measurement": "IC50", "result": "9.02 µM (inactive)"}]}, {"compound": "CCOC(=O)N=Nc1c2ccccc2c2nc3no[nH]c3nc12", "values": [{"measurement": "IC50", "result": 4.21, "unit": "µM"}]}, {"compound": "Cc1ccc(NC(=O)CSc2nc3ccccc3c3nc(CCc4c(C)n[nH]c4C)nn23)cc1F", "values": [{"measurement": "IC50", "result": "9.71 µM (inactive)"}]}, {"compound": "CC(C)(C)c1ccc(Oc2ccc(N)cc2)cc1", "values": [{"measurement": "IC50", "result": "< 0.16 µM (inactive)"}]}, {"compound": "C=CCn1c(COc2ccccc2)nnc1SC(C)C(=O)N/N=C/c1cc(Cl)ccc1O", "note": "(stereo not drawn)", "values": [{"measurement": "IC50", "result": "9.66 µM (inactive)"}]}, {"compound": "CCOc1ccc(-c2nc(CSCC(=O)NCc3ccco3)c(C)o2)cc1", "values": [{"measurement": "IC50", "result": "< 0.16", "unit": "µM"}]}, {"compound": "O=C(Nc1ccccc1Cl)c1ccccc1Oc1ccc(C(F)(F)F)cc1[N+](=O)[O-]", "values": [{"measurement": "IC50", "result": "6.53 µM (inactive)"}]}, {"compound": "CC(C)C[C@H](NC(=O)OC(C)(C)C)C(=O)N/N=C/C1=Cc2ccccc2OC1C", "note": "(stereo partly drawn)", "values": [{"measurement": "IC50", "result": 2.31, "unit": "µM"}]}, {"compound": "C=CCn1c(C)cc(C2=NNC(=NCC)SC2)c1C", "values": [{"measurement": "IC50", "result": "< 0.16", "unit": "µM"}]}, {"compound": "CCSCCc1nnc(NC(=O)Nc2cccc(C(F)(F)F)c2)s1", "values": [{"measurement": "IC50", "result": "6.82 µM (inactive)"}]}, {"compound": "CCCCCCCCCCCCCCCCn1cc[n+](C)c1", "values": [{"measurement": "IC50", "result": "0.86 µM (inactive)"}]}, {"compound": "Oc1ccc(Br)cc1-c1nc2cnccn2c1NC1CCCCC1", "values": [{"measurement": "IC50", "result": "> 10 µM (inactive)"}]}, {"compound": "CCOc1cc(NC(=S)NCC(C)C)c(OCC)cc1NC(=O)c1cccs1", "values": [{"measurement": "IC50", "result": "> 10 µM (inactive)"}]}, {"compound": "O=C(Nc1ccc(F)cc1)Nc1ccc(N2CCCC2)c(S(=O)(=O)Nc2ccccc2Cl)c1", "values": [{"measurement": "IC50", "result": "8.31 µM (inactive)"}]}, {"compound": "CC1=CC(C)(C)N(C(=O)c2ccc(F)cc2)c2cc3c(cc21)OCO3", "values": [{"measurement": "IC50", "result": "5.31 µM (inactive)"}]}, {"compound": "O=C(c1ccc(COc2ccc(Cl)cc2)o1)N1N=C(C(F)F)CC1(O)C(F)F", "note": "(stereo not drawn)", "values": [{"measurement": "IC50", "result": "9.64 µM (inactive)"}]}, {"compound": "O=S(=O)(Nc1ccccc1)c1ccc(Oc2ncc(C(F)(F)F)cc2Cl)cc1", "values": [{"measurement": "IC50", "result": "> 10 µM (inactive)"}]}, {"compound": "Cn1c(-c2cccc(OCc3ccccc3)c2)nc2c1c(=O)[nH]c(=O)n2Cc1ccccc1", "values": [{"measurement": "IC50", "result": "> 10 µM (inactive)"}]}, {"compound": "CCn1c(C)nc2cc(-c3nc4n(n3)Cc3ccccc3-4)ccc21", "values": [{"measurement": "IC50", "result": "< 0.16 µM (inactive)"}]}, {"compound": "Cc1ccc(NC(=O)NC(=O)CN2C(=O)NC3(CCCCCCC3)C2=O)c(C)c1", "values": [{"measurement": "IC50", "result": "9.53 µM (inactive)"}]}]}
